Measurements reported in patent US6346260B1, “Microbicidal active ingredients” (Ciba Specialty Chemicals Corporation, priority 1999, dated 2002).

Assays:
Type in all cases: cell-based
[1] = system: Rhizopus stolonifer DSM 63011; test: MIC in microtitre plates, Rhizopus stolonifer; conditions: DSM63011, 120 h, Table 1, 5 days at 28° C., ≦20% growth
Experimental: (§1) Determination of Antimicrobial Activity in Accordance with the Microtitre Plate Method Determination of the Minimum Inhibitory Concentration (MIC value) in Microtitre Plates Mycological slant agar for the preculture of moulds. Rhizopus stolonifer DSM 63011 The test substances are predissolved in dimethyl sulfoxide (DMSO) and tested in a dilution series of 1:2. Bacteria and yeast are cultured overnight in CASO bouillon, the mould on mycological slant agar and rinsed off with 10 ml of 0.85% sodium chloride solution (+0.1% TritonX-100). All test organisms are adjusted to an organism count of 1-5*10^6 CFU/ml with 0.85% sodium chloride solution. The test substances are prepipetted into microtitre plates in an amount of 8 μl per well. Previously diluted test organism suspensions are diluted 1:100 in CASO bouillon (bacteria and yeast) and Sabouraud 2% glucose bouillon (mould) and added to the test substances in an amount of 192 μl per well. The test batches are incubated for 48 hours at 37° C. (bacteria and yeast) or for 5 days at 28° C. (mould). After incubation, the growth is determined by reference to the turbidity of the test batches (optical density) at 620 nm in a microplate reader. […]

[2] = system: Staphylococcus aureus ATCC 9144; test: MIC in microtitre plates, Staphylococcus aureus; conditions: ATCC9144, Table 1, 48 hours at 37° C., ≦20% growth
Experimental: as §1, with “casein-soybean flour-peptone bouillon” for “Mycological slant agar”, “preparation” for “preculture”, “the precultures of the test bacteria and yeast. Staphylococcus aureus ATCC 9144” for “moulds. Rhizopus stolonifer DSM 63011”

[3] = system: Pseudomonas aeruginosa CIP A-22; test: MIC in microtitre plates, Pseudomonas aeruginosa; conditions: Pseudomonas aeruginosa, CIPA22; Table 1; CIP A-22; 48 hours at 37° C.; ≦20% growth; read-out: MIC Pseudomonas aeruginosa
Experimental: Determination of Antimicrobial Activity in Accordance with the Microtitre Plate Method Determination of the Minimum Inhibitory Concentration (MIC value) in Microtitre Plates casein-soybean flour-peptone bouillon for the preparation of the precultures of the test bacteria and yeast. Pseudomonas aeruginosa CIP A-22 The test substances are predissolved in dimethyl sulfoxide (DMSO) and tested in a dilution series of 1:2. Bacteria and yeast are cultured overnight in CASO bouillon, the mould on mycological slant agar and rinsed off with 10 ml of 0.85% sodium chloride solution (+0.1% TritonX-100). All test organisms are adjusted to an organism count of 1-5*10^6 CFU/ml with 0.85% sodium chloride solution. The test substances are prepipetted into microtitre plates in an amount of 8 μl per well. Previously diluted test organism suspensions are diluted 1:100 in CASO bouillon (bacteria and yeast) and Sabouraud 2% glucose bouillon (mould) and added to the test substances in an amount of 192 μl per well. The test batches are incubated for 48 hours at 37° C. (bacteria and yeast) or for 5 days at 28° C. (mould). After incubation, the growth is determined by reference to the turbidity of the test batches (optical density) at 620 nm in a microplate reader. The minimum inhibitory concentration (MIC value) is the concentration of substance at which (compared with the growth of the control) an appreciable inhibition of the growth (≦20% growth) of the test organisms is ascertained. One microtitre plate is used for each test organism and substance concentration. All substances are tested in duplicate.

[4] = system: Corynebacterium xerosis ATCC 373; test: MIC in microtitre plates, Corynebacterium xerosis; conditions: ATCC373, Table 1, 48 hours at 37° C., ≦20% growth
Experimental: as §1, with “casein-soybean flour-peptone bouillon” for “Mycological slant agar”, “preparation” for “preculture”, “the precultures of the test bacteria and yeast. Corynebacterium xerosis ATCC 373” for “moulds. Rhizopus stolonifer DSM 63011”

O=C(CC(=O)c1ccccc1O)c1ccco1 [Compound of formula (101)]
MIC [1]: 50 µg/mL | MIC [2]: 100 to 500 µg/mL | MIC [3]: > 1000 µg/mL | MIC [4]: 50 µg/mL
